Data from patent publication US7250442B2, “Dihydroindol-2-one derivatives as steroid hormone nuclear receptor modulators” (Eli Lilly and Company, priority 2003, dated 2007).
pKi: −log10 of the molar value.

Each compound was assayed against T1, glucocorticoid receptor (Homo sapiens, UniProt P04150) (assay: Glucocorticoid Receptor Binding Assay ([3H]-dexamethasone displacement, A549 cell extract)). Conditions: A549 human lung epithelial cell extract, 1.86 nM [3H]-dexamethasone; read-out: GR Ki.
T1 construct: host or cells: A549 human lung epithelial cells (sonicated cell extract)
T1 sequence (P04150 1-777): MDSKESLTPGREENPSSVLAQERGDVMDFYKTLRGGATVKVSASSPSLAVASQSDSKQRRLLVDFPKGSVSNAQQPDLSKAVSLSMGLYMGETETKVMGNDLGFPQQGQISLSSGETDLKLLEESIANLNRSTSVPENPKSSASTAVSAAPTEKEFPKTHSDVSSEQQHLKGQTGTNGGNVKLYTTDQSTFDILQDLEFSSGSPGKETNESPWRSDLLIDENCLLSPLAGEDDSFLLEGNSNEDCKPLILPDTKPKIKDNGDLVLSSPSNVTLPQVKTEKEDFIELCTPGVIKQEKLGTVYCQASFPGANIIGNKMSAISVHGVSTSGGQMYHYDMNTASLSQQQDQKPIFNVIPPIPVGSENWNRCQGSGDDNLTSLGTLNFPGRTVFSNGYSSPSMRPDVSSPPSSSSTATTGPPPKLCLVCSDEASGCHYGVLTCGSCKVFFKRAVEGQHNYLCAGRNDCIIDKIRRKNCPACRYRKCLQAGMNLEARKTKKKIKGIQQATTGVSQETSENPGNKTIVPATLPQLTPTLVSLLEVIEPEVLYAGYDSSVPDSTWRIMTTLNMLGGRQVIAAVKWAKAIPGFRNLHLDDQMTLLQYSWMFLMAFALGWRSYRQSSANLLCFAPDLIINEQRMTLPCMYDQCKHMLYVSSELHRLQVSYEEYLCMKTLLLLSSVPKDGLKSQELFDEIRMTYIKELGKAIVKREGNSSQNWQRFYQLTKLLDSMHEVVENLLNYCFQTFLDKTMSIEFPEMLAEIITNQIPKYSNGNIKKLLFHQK
Protocol: Glucocorticoid Receptor Binding Assay:
A549 human lung epithelial cells (ATCC) are grown at a scale where gram quantity cell pellets are obtained. Harvested cell pellets are washed twice in cold phosphate buffered saline, centrifuged, and resuspended in cold assay binding buffer. The assay binding buffer consists of 10% glycerol, 50 mM Tris-HCl (pH7.2), 75 mM sodium chloride, 1.5 mM magnesium chloride, 1.5 mM EDTA, and 10 mM sodium molybdate. Cell suspensions were lysed via sonication, centrifuged, and the “extract” supernatant is snap frozen and stored at −80C. until needed.
GR binding assays are performed in a final volume of 140 ul containing 50-200 ug of A549 cell extract and 1.86 nM [^3H]-dexamethasone (Amersham) plus varying concentrations of test compound or vehicle. Briefly, assays are prepared at RT in 96-well Fisher 3356 plates, each well containing 100 ul of A549 cell extract, 20 ul of [^3H]-dexamethasone, and 20 ul of test compound/vehicle. Incubations are carried out at 4 degrees celsius for 16 hours. After incubation, 70 ul of 3× dextran-coated charcoal solution is added to each reaction, mixed, and incubated for 8 minutes at RT. 3×-dextran-coated charcoal solution consists of 250 ml assay binding buffer, 3.75 g Norit A charcoal (Sigma), and 1.25 g dextran T-70 (Amersham). Charcoal/unbound radioligand complexes are removed by centrifugation of the plate and 140 ul of supernatant from each well is transferred to another 96 well Optiplate (Packard Instruments). 200 ul of Microscint-20 scinillant (Packard Instruments) is added to each well and amount of receptor bound radioligand is determined using Packard Instruments TopCount instrument.
IC50 values, defined as the concentration of test compound required to decrease [^3H]-dexamethasone binding by 50%, are then determined. Ki values for each respective test compound can then be calculated by application of the Cheng-Prusoff equation as described in Cheng et al., Relationship Between The Inhibition Constant (Ki) and The Concentration of Inhibitor Which Causes 50% Inhibition (IC50) of an Enzymatic Reaction, Biochem. Pharmacol., 22: 3099-31088; (1973).
With `COc1ccc(CN2C(=O)C(c3cc(C)c(O)c(C)c3)(c3cc(C)c(O)c(C)c3)c3ccccc32)cc1` [Example 1, 3,3-Bis-(4-hydroxy-3,5-dimethyl-phenyl)-1-(4-methoxy-benzyl)-1,3-dihydro-indol-2-one] the pKi was ≥ 6.30. `COC(=O)c1ccc(CN2C(=O)C(c3cc(C)c(O)c(C)c3)(c3cc(C)c(O)c(C)c3)c3ccccc32)cc1` [Example 3, 4-[3,3-Bis-(4-hydroxy-3,5-dimethyl-phenyl)-2-oxo-2,3-dihydro-indol-1-ylmethyl]-benzoic acid methyl ester] was tested, and the pKi was ≥ 6.30. For `Cc1cc(C2(c3cc(C)c(O)c(C)c3)C(=O)N(C)c3ccccc32)cc(C)c1O` [Example 4, 3,3-Bis-(4-hydroxy-3,5-dimethyl-phenyl)-1-methyl-1,3-dihydro-indol-2-one], the pKi was ≥ 6.30. For `CCCN1C(=O)C(c2cc(C)c(O)c(C)c2)(c2cc(C)c(O)c(C)c2)c2ccccc21` [Example 5, 3,3-Bis-(4-hydroxy-3,5-dimethyl-phenyl)-1-propyl-1,3-dihydro-indol-2-one], the pKi was ≥ 6.30. With `Cc1cc(C2(c3cc(C)c(O)c(C)c3)C(=O)N(CC3CCCCC3)c3ccccc32)cc(C)c1O` [Example 6, 1-Cyclohexylmethyl-3,3-bis-(4-hydroxy-3,5-dimethyl-phenyl)-1,3-dihydro-indol-2-one] the pKi was ≥ 6.30. With `Cc1cc(C2(c3cc(C)c(O)c(C)c3)C(=O)N(Cc3cccc(OC(F)(F)F)c3)c3ccccc32)cc(C)c1O` [Example 8, 3,3-Bis-(4-hydroxy-3,5-dimethyl-phenyl)-1-(3-trifluoromethoxy-benzyl)-1,3-dihydro-indol-2-one] the pKi was ≥ 6.30. In the case of `Cc1cc(C2(c3cc(C)c(O)c(C)c3)C(=O)N(Cc3c(C)noc3C)c3ccccc32)cc(C)c1O` [Example 9, 1-(3,5-Dimethyl-isoxazol-4-ylmethyl)-3,3-bis-(4-hydroxy-3,5-dimethyl-phenyl)-1,3-dihydro-indol-2-one], the pKi was ≥ 6.30. For `Cc1cc(C2(c3cc(C)c(O)c(C)c3)C(=O)N(Cc3ccccc3Cl)c3ccccc32)cc(C)c1O` [Example 11, 1-(2-Chloro-benzyl)-3,3-bis-(4-hydroxy-3,5-dimethyl-phenyl)-1,3-dihydro-indol-2-one], the pKi was ≥ 6.30. `Cc1cc(C2(c3ccc(O)c(C)c3)C(=O)N(Cc3ccccc3)c3ccccc32)ccc1O` [Example 12, 1-Benzyl-3,3-bis-(4-hydroxy-3-methyl-phenyl)-1,3-dihydro-indol-2-one] was tested, and the pKi was ≥ 6.30. For `O=C1N(Cc2ccccc2)c2ccccc2C1(c1cc(Cl)c(O)c(Cl)c1)c1cc(Cl)c(O)c(Cl)c1` [Example 14, 1-Benzyl-3,3-bis-(3,5-dichloro-4-hydroxy-phenyl)-1,3-dihydro-indol-2-one], the pKi was ≥ 6.30. With `Cc1cc(C2(c3cc(C)c(O)c(C)c3)C(=O)N(Cc3ccccc3)c3ccc(Br)cc32)cc(C)c1O` [Example 15, 1-Benzyl-5-bromo-3,3-bis-(4-hydroxy-3,5-dimethyl-phenyl)-1,3-dihydro-indol-2-one] the pKi was ≥ 6.00. With `Cc1ccc2c(c1)C(c1cc(C)c(O)c(C)c1)(c1cc(C)c(O)c(C)c1)C(=O)N2Cc1ccccc1` [Example 17, 1-Benzyl-3,3-bis-(4-hydroxy-3,5-dimethyl-phenyl)-5-methyl-1,3-dihydro-indol-2-one] the pKi was ≥ 6.30. `Cc1cc(C2(c3cc(C)c(O)c(C)c3)C(=O)N(Cc3ccccc3Cl)c3ccc(Br)cc32)cc(C)c1O` [Example 19, 5-Bromo-1-(2-chloro-benzyl)-3,3-bis-(4-hydroxy-3,5-dimethyl-phenyl)-1,3-dihydro-indol-2-one] was tested, and the pKi was ≥ 6.00. With `Cc1ccccc1CN1C(=O)C(c2cc(C)c(O)c(C)c2)(c2cc(C)c(O)c(C)c2)c2cc(Br)ccc21` [Example 20, 5-Bromo-3,3-bis-(4-hydroxy-3,5-dimethyl-phenyl)-1-(2-methyl-benzyl)-1,3-dihydro-indol-2-one] the pKi was ≥ 6.30. `Cc1ccc2c(c1)C(c1cc(C)c(O)c(C)c1)(c1cc(C)c(O)c(C)c1)C(=O)N2Cc1ccccc1C` [Example 21, 3,3-Bis-(4-hydroxy-3,5-dimethyl-phenyl)-5-methyl-1-(2-methyl-benzyl)-1,3-dihydro-indol-2-one] was tested, and the pKi was ≥ 6.30. In the case of `Cc1ccc2c(c1)C(c1cc(C)c(O)c(C)c1)(c1cc(C)c(O)c(C)c1)C(=O)N2Cc1ccccc1Cl` [Example 22, 1-(2-Chloro-benzyl)-3,3-bis-(4-hydroxy-3,5-dimethyl-phenyl)-5-methyl-1,3-dihydro-indol-2-one], the pKi was ≥ 6.30. For `Cc1ccc2c(c1)C(c1cc(C)c(O)c(C)c1)(c1cc(C)c(O)c(C)c1)C(=O)N2Cc1ccccc1C#N` [Example 23, 2-[3,3-Bis-(4-hydroxy-3,5-dimethyl-phenyl)-5-methyl-2-oxo-2,3-dihydro-indol-1-ylmethyl]-benzonitrile], the pKi was ≥ 6.30. In the case of `Cc1cc(C2(c3cc(C)c(O)c(C)c3)C(=O)N(Cc3ccccc3Cl)c3c(C)cccc32)cc(C)c1O` [Example 24, 1-(2-Chloro-benzyl)-3,3-bis-(4-hydroxy-3,5-dimethyl-phenyl)-7-methyl-1,3-dihydro-indol-2-one], the pKi was ≥ 6.00. With `CCc1cccc2c1N(Cc1ccccc1Cl)C(=O)C2(c1cc(C)c(O)c(C)c1)c1cc(C)c(O)c(C)c1` [Example 25, 1-(2-Chloro-benzyl)-7-ethyl-3,3-bis-(4-hydroxy-3,5-dimethyl-phenyl)-1,3-dihydro-indol-2-one] the pKi was ≥ 6.00. For `Cc1cc(C2(c3cc(C)c(O)c(C)c3)C(=O)N(Cc3ccccc3Cl)c3cccc(Cl)c32)cc(C)c1O` [Example 26, 4-Chloro-1-(2-chloro-benzyl)-3,3-bis-(4-hydroxy-3,5-dimethyl-phenyl)-1,3-dihydro-indol-2-one], the pKi was ≥ 6.30. `Cc1cc(C2(c3cc(C)c(O)c(C)c3)C(=O)N(Cc3ccccc3Cl)c3ccccc32)cc(C)c1N` (stereo not drawn) [Example 35, 3-(4-Amino-3,5-dimethyl-phenyl)-1-(2-chloro-benzyl)-3-(4-hydroxy-3,5-dimethyl-phenyl)-1,3-dihydro-indol-2-one] was tested, and the pKi was ≥ 6.30. With `Cc1cc(C2(c3ccc(O)cc3)C(=O)N(Cc3ccccc3Cl)c3ccccc32)cc(C)c1O` (stereo not drawn) [Example 36, 1-(2-Chloro-benzyl)-3-(4-hydroxy-3,5-dimethyl-phenyl)-3-(4-hydroxy-phenyl)-1,3-dihydro-indol-2-one] the pKi was ≥ 6.30. For `Cc1cc(C2(c3cc(C)c(O)c(C)c3)C(=O)N(Cc3ccc(F)cc3F)c3ccccc32)cc(C)c1O` [Example 43, 1-(2,4-Difluoro-benzyl)-3,3-bis-(4-hydroxy-3,5-dimethyl-phenyl)-1,3-dihydro-indol-2-one], the pKi was ≥ 6.30. For `Cc1cc(C2(c3cc(C)c(O)c(C)c3)C(=O)N(Cc3ccccc3F)c3ccccc32)cc(C)c1O` [Example 50, 1-(2-Fluoro-benzyl)-3,3-bis-(4-hydroxy-3,5-dimethyl-phenyl)-1,3-dihydro-indol-2-one], the pKi was ≥ 6.30. `Cc1cc(C2(c3cc(C)c(O)c(C)c3)C(=O)N(Cc3ccccc3C(F)(F)F)c3ccccc32)cc(C)c1O` [Example 53, 3,3-Bis-(4-hydroxy-3,5-dimethyl-phenyl)-1-(2-trifluoromethyl-benzyl)-1,3-dihydro-indol-2-one] was tested, and the pKi was ≥ 6.00. For `Cc1cc(C2(c3cc(C)c(O)c(C)c3)C(=O)N(Cc3ccccc3-c3ccccc3)c3ccccc32)cc(C)c1O` [Example 54, 1-Biphenyl-2-ylmethyl-3,3-bis-(4-hydroxy-3,5-dimethyl-phenyl)-1,3-dihydro-indol-2-one], the pKi was ≥ 6.00. With `COc1cccc(CN2C(=O)C(c3cc(C)c(O)c(C)c3)(c3cc(C)c(O)c(C)c3)c3ccccc32)c1` [Example 56, 3,3-Bis-(4-hydroxy-3,5-dimethyl-phenyl)-1-(3-methoxy-benzyl)-1,3-dihydro-indol-2-one] the pKi was ≥ 6.30.
